Results as given in patent publication US20120225862A1, “HETEROARYL BENZAMIDES, COMPOSITIONS AND METHODS OF USE” (AUCKLAND UNIVSERVICES LIMITED, priority 2009, published 2012).

How the values were obtained:
LC3 = assay: Autophagy markers (vacuoles, LC3 processing); assay type: cell-based, human; details: RCC4 and RCC4/VHL, 1.25, 2.5 and 5 μM
Method: (A) Clonogenic survival of RCC4 and RCC4/VHL treated with […] (5 μM)(*p<0.05). All error bars represent the standard error of the mean. […] RCC4 and RCC4/VHL cells were treated with increasing concentrations of compound 47 (1.25, 2.5 and 5 μM), a negative control (DMSO) and a positive control (4-(pyridin-4-yl)-N-(m-tolyl)thiazol-2-amine). Cells were lysed and probed for LC3, a marker of autophagy, or α-tubulin (loading control). […] RCC4 and RCC4/VHL cells were treated with vehicle, increasing concentrations of compound 47, and camptothecin. Cells were stained with DAPI and nuclear condensation was examined by fluorescence microscopy. (D) RCC4 cells were treated with compound 47 (5 μM) for the indicated time and stained with Annexin V and propidium iodide and subjected to FACS analysis. […] RCC4 and RCC4/VHL cells were subjected to increasing concentrations of compound 47 (1.25, 2.5, and 5 μM), a negative control (DMSO), and a positive control (doxorubicin). Cells were lysed and subjected to Western blot with the indicated antibodies.
However, RCC cells without VHL undergo a necrotic cell death in response to compound 47 as measured by the ability of the cells to exclude trypan blue, an indicator of cell membrane integrity.

PDK1 = molecular target: T1, PDK1 (Homo sapiens, UniProt O15530); assay: In vitro kinase activity (Millipore KinaseProfiler): PDK1; assay type: biochemical; details: no head or unit printed
T1 construct: purchased Millipore (KinaseProfiler service)
Method: (§1) All cells were grown in DMEM+10% FCS. ACHN and ACHN shVHL were a kind gift from George V. Thomas (UCLA). HIF overexpressing clones were described previously. Transfection of RNA oligos were performed with DnarmaFECT Reagent 1 (Dharmcon), according to manufacturer's directions. ON-TARGETplus SMART pools against HIF-1β/ARNT were purchased from Dharmacon. Glut1 was detected with anti-GLUT1 antibody from NeoMarkers/LabVision/Fisher. Pyruvate/lactate levels and hexokinase activity were both measured by fluorometric assay (BioVision and Sigma-Aldrich, respectively). ATP levels were measured by bioluminescence assay (ATP Determination Kit from Molecular Probes/Invitrogen). In vitro kinase activities were performed by Millipore KinaseProfiler. Affi-Gel 10 (BioRad) activated affinity media was coupled to analogs to generate immobilized affinity linkers.
(§2) We next wanted to investigate the differential glucose uptake between RCCs with and without VHL treated with compound 47 that subsequently lead to the selective death of VHL-deficient cells. We first examined the message levels of the two main glucose transporters, GLUT1 and GLUT2 by quantitative real-time PCR. GLUT1 is an inducible, high-affinity glucose transporter, while GLUT2 is the glucose transporter responsible for basal glucose uptake. […] Cells deficient in VHL had very low levels of GLUT2 that could barely be detected (FIG. 3J). […]

RCC4/VHL [1] = assay: Lactate production (glycolysis), RCC4/VHL; assay type: cell-based, human; details: 5 μM
Method: as §1
As the central mediator of oxygen homeostasis, HIF plays an important role in the cellular adaptation to low oxygen conditions through the regulation of genes involved in metabolism and energy production. Inactivation of VHL results in an increase in the half-life of HIF protein. […] To examine whether this compound alters the rate of glycolysis in VHL-deficient cells, we measured the intracellular production of lactate, which is rapidly converted from pyruvate, the end-product of glycolysis. […]

RCC4/VHL [2] = assay: XTT IC50 assay, selectivity RCC4 versus RCC4 with VHL-reintroduced; assay type: cell-based, human; details: selectivity ratio of XTT IC50 values, RCC4 vs RCC4/VHL
How it was run: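 RCC4 parental and VHL-reintroduced RCC4/VHL cells (DMEM, 10% FCS) treated with serially diluted drug for four days. Viability by XTT (0.3 mg/mL) with N-methyl dibenzopyrazine methyl sulfate, 1–2 h at 37 °C, absorbance 450 nm; IC50 by linear interpolation.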

PAK2 = molecular target: T2, PAK2 (Homo sapiens, UniProt Q13177); assay: In vitro kinase activity (Millipore KinaseProfiler): PAK2; assay type: biochemical; details: no head or unit printed
T2 construct: purchased Millipore (KinaseProfiler service)
Method: as §1, §2

T2 sequence (Q13177 whole entry, species assumed): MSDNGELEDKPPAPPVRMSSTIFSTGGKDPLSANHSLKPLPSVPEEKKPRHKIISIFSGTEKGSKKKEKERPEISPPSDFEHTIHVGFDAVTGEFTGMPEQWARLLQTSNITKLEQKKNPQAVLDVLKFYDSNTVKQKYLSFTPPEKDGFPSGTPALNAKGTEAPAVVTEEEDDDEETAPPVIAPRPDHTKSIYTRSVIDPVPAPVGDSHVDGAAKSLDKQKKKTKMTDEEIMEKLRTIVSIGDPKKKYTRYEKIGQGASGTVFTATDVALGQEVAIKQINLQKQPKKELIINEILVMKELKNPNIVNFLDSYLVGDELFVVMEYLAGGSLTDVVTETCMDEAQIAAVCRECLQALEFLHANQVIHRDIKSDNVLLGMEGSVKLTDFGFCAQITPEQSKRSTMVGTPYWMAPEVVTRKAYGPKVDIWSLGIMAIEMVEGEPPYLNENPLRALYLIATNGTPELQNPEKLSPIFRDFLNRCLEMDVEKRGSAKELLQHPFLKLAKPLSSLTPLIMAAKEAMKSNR
T1 sequence (O15530 whole entry): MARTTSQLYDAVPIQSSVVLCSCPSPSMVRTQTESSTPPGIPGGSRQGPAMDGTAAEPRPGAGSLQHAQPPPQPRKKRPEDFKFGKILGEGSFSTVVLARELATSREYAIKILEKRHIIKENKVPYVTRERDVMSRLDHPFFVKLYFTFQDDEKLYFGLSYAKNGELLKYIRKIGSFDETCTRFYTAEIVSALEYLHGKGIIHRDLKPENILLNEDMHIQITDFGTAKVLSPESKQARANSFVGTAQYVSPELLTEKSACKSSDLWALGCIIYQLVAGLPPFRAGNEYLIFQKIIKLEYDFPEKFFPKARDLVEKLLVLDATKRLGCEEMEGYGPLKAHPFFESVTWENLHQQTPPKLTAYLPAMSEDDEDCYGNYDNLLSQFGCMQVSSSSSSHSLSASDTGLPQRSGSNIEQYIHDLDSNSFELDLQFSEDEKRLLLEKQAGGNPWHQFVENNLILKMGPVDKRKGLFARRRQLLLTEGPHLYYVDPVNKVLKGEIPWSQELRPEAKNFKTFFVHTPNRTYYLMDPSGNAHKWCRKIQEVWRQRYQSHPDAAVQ

## CC(C)(C)c1ccc(S(=O)(=O)NCc2ccc(C(=O)Nc3cccnc3)cc2)cc1 [Example 38, 4-((4-tert-Butylphenylsulfonamido)methyl)-N-(pyridin-3-yl)benzamide]
LC3
  induction of autophagy (vacuoles, LC3 processing): did not induce any morphologic or biochemical features of autophagy
PDK1
  PDK1 kinase activity: 105%
RCC4/VHL [1]
  effect on glycolysis (lactate) in cells with wild-type VHL: did not affect glycolysis
RCC4/VHL [2]
  Ratio (RCC4:RCC/VHL): c (“c” reflects a ratio of >100)
PAK2
  PAK2 kinase activity: 97%
